System: HIV-infected subjects
Assay: Safety and tolerability (TEAEs, ECG, laboratory) after repeated oral administration, phase 2a study
Assay type: in vivo, human
Settings: for Subjects experiencing at least one TEAE: Abdominal pain / Subjects experiencing at least one TEAE: Arthralgia / Subjects experiencing at least one TEAE: Back pain / Subjects experiencing at least one TEAE: Diarrhea / Subjects experiencing at least one TEAE: Flank pain / Subjects experiencing at least one TEAE: Gastrointestinal disorders / Subjects experiencing at least one TEAE: Headache / Subjects experiencing at least one TEAE: Injury, poisoning, and procedural complications / Subjects experiencing at least one TEAE: Musculoskeletal and connective tissue disorders / Subjects experiencing at least one TEAE: Nausea / Subjects experiencing at least one TEAE: Neck pain / Subjects experiencing at least one TEAE: Nervous system disorders / Subjects experiencing at least one TEAE: Pain in extremity / Subjects experiencing at least one TEAE: Sciatica, back pain / Subjects experiencing at least one TEAE: Skin abrasion / Subjects experiencing at least one TEAE: Total / Subjects experiencing at least one TEAE: Upper abdominal pain / Subjects experiencing at least one TEAE: Vomiting: fasted
Procedure: Participants were assigned to one of eight groups; each group (with one exception) included eight subjects receiving either ABX464 (n = 6) or the corresponding placebo (n = 2) according to a randomization code. […] In the present study with HIV-infected subjects, the first dose administered was 25 mg, given once or 3 times a day over a 2- to 3-week period. This initial dose was therefore considered safe for assessment of the safety and tolerability of ABX464 after repeated oral administrations in subjects infected by HIV and determination of the potential effect on the HIV viral load.
The final dosing protocol for each of the eight groups was as follows: group 1, 25 mg every 3 days for 2 to 3 weeks under fasted conditions; group 2, 25 mg once a day (q.d.) for 2 to 3 weeks under fasted conditions; group 3, 50 mg once a day for 2 to 3 weeks under fasted conditions; group 4, 50 mg 3 times a day (t.i.d.) for 4 weeks under fed conditions; group 5, 75 mg once a day for 2 weeks under fed conditions; group 6, 100 mg once a day for 2 to 3 weeks under fasted conditions; group 7, 150 mg every 3 days for 2 to 3 weeks under fed conditions; and group 8, 150 mg once a day for 2 weeks under fed conditions. Per the study protocol, the treatment period was defined as 2 weeks. […] The decision to proceed to the next highest dose was determined by the data and safety monitoring board after review of the laboratory safety data, vital signs, ECGs, and adverse event reports from the group receiving the current dose after 2 weeks of treatment.
Subjects were hospitalized from the day prior to the first dose to at least the morning of day 2. They were orally dosed with 25-mg capsules of ABX464 with 240 ml water under fed or fasted conditions. According to the group, subjects were dosed with 1, 2, 3, 4, or 6 capsules to deliver 25 mg, 50 mg, 75 mg, 100 mg, or 150 mg product, respectively, or the same number of placebo capsules.
Safety assessments and laboratory tests were carried out according to the schedules described in Table S4 for groups dosed every day, every 3 days, and 3 times a day. Follow-up visits were scheduled for 7 days after the last dose and subsequently once every week in order to assess the elimination of the main ABX464 metabolite and to assess the viral load. Follow-up visits were terminated when the virus load was within 0.5 log of the baseline value or after 3 follow-up visits, whichever came first. Prior to the statistical analyses, AEs were coded using the Medical Dictionary for Regulatory Activities (MedDRA dictionary; last available version) in order to be tabulated by system organ class (SOC) and preferred term (PT). The AEs were analyzed according to the treatment emergence phase from the first study drug administration on day 1 up to 48 h after the last study drug administration. The number and percentage of subjects with at least one TEAE were tabulated by SOC and PT for each group and dose. The number of occurrences of TEAEs was also analyzed in the same way by SOC and PT for each group and dose, by grade of severity for each group and dose, and by level of causality to the study drug for each group and dose.

[1] = Group 1 (n = 6), 25 mg every 3 days, Mild
[2] = Group 1 (n = 6), 25 mg every 3 days, Moderate
[3] = Group 2 (n = 6), 25 mg q.d., Mild
[4] = Group 2 (n = 6), 25 mg q.d., Moderate

SMILES: FC(F)(F)Oc1ccc(Nc2ccc3cccc(Cl)c3n2)cc1 [ABX464]
- Nausea frequency (75 mg q.d.): 66.7%
- Subjects with a skin rash episode (75 mg q.d. under fed conditions, one episode of moderate intensity): two
- Subjects with vomiting episodes (150 mg every 3 days): 50.0%
- Nausea frequency (150 mg q.d.): 100%
- Subjects reporting vomiting (16 subjects overall, no vomiting episodes in placebo): 32%
- Severity of adverse events (ABX464 treatment group): mild to moderate
- TEAEs leading to treatment discontinuation (ABX464 treatment group): none of the TEAEs led to treatment discontinuation
- Subjects reporting at least one episode of headache (ABX464 treatment groups): 56%
- Subjects experiencing at least one TEAE: Abdominal pain [1]: 0 (0.0) No. (%)
- Subjects experiencing at least one TEAE: Arthralgia [1]: 0 (0.0) No. (%)
- Subjects experiencing at least one TEAE: Back pain [1]: 0 (0.0) No. (%)
- Subjects experiencing at least one TEAE: Diarrhea [1]: 0 (0.0) No. (%)
- Subjects experiencing at least one TEAE: Flank pain [1]: 0 (0.0) No. (%)
- Subjects experiencing at least one TEAE: Gastrointestinal disorders [1]: 2 (33.3) No. (%)
- Subjects experiencing at least one TEAE: Headache [1]: 0 (0.0) No. (%)
- Subjects experiencing at least one TEAE: Injury, poisoning, and procedural complications [1]: 0 (0.0) No. (%)
- Subjects experiencing at least one TEAE: Musculoskeletal and connective tissue disorders [1]: 0 (0.0) No. (%)
- Subjects experiencing at least one TEAE: Nausea [1]: 1 (16.7) No. (%)
- Subjects experiencing at least one TEAE: Neck pain [1]: 0 (0.0) No. (%)
- Subjects experiencing at least one TEAE: Nervous system disorders [1]: 0 (0.0) No. (%)
- Subjects experiencing at least one TEAE: Pain in extremity [1]: 0 (0.0) No. (%)
- Subjects experiencing at least one TEAE: Sciatica, back pain [1]: 0 (0.0) No. (%)
- Subjects experiencing at least one TEAE: Skin abrasion [1]: 0 (0.0) No. (%)
- Subjects experiencing at least one TEAE: Total [1]: 2 (33.3) No. (%)
- Subjects experiencing at least one TEAE: Upper abdominal pain [1]: 0 (0.0) No. (%)
- Subjects experiencing at least one TEAE: Vomiting [1]: 1 (16.7) No. (%)
- Subjects experiencing at least one TEAE: Abdominal pain [2]: 0 (0.0) No. (%)
- Subjects experiencing at least one TEAE: Arthralgia [2]: 0 (0.0) No. (%)
- Subjects experiencing at least one TEAE: Back pain [2]: 0 (0.0) No. (%)
- Subjects experiencing at least one TEAE: Diarrhea [2]: 0 (0.0) No. (%)
- Subjects experiencing at least one TEAE: Flank pain [2]: 0 (0.0) No. (%)
- Subjects experiencing at least one TEAE: Headache [2]: 0 (0.0) No. (%)
- Subjects experiencing at least one TEAE: Injury, poisoning, and procedural complications [2]: 0 (0.0) No. (%)
- Subjects experiencing at least one TEAE: Musculoskeletal and connective tissue disorders [2]: 1 (16.7) No. (%)
- Subjects experiencing at least one TEAE: Nausea [2]: 0 (0.0) No. (%)
- Subjects experiencing at least one TEAE: Neck pain [2]: 0 (0.0) No. (%)
- Subjects experiencing at least one TEAE: Nervous system disorders [2]: 0 (0.0) No. (%)
- Subjects experiencing at least one TEAE: Pain in extremity [2]: 0 (0.0) No. (%)
- Subjects experiencing at least one TEAE: Sciatica, back pain [2]: 1 (16.7) No. (%)
- Subjects experiencing at least one TEAE: Skin abrasion [2]: 0 (0.0) No. (%)
- Subjects experiencing at least one TEAE: Total [2]: 2 (33.3) No. (%)
- Subjects experiencing at least one TEAE: Upper abdominal pain [2]: 0 (0.0) No. (%)
- Subjects experiencing at least one TEAE: Vomiting [2]: 0 (0.0) No. (%)
- Subjects experiencing at least one TEAE: Abdominal pain [3]: 0 (0.0) No. (%)
- Subjects experiencing at least one TEAE: Arthralgia [3]: 0 (0.0) No. (%)
- Subjects experiencing at least one TEAE: Back pain [3]: 1 (16.7) No. (%)
- Subjects experiencing at least one TEAE: Diarrhea [3]: 1 (16.7) No. (%)
- Subjects experiencing at least one TEAE: Flank pain [3]: 0 (0.0) No. (%)
- Subjects experiencing at least one TEAE: Gastrointestinal disorders [3]: 2 (33.3) No. (%)
- Subjects experiencing at least one TEAE: Headache [3]: 1 (16.7) No. (%)
- Subjects experiencing at least one TEAE: Injury, poisoning, and procedural complications [3]: 0 (0.0) No. (%)
- Subjects experiencing at least one TEAE: Musculoskeletal and connective tissue disorders [3]: 1 (16.7) No. (%)
- Subjects experiencing at least one TEAE: Nausea [3]: 0 (0.0) No. (%)
- Subjects experiencing at least one TEAE: Neck pain [3]: 0 (0.0) No. (%)
- Subjects experiencing at least one TEAE: Nervous system disorders [3]: 1 (16.7) No. (%)
- Subjects experiencing at least one TEAE: Pain in extremity [3]: 0 (0.0) No. (%)
- Subjects experiencing at least one TEAE: Sciatica, back pain [3]: 0 (0.0) No. (%)
- Subjects experiencing at least one TEAE: Skin abrasion [3]: 0 (0.0) No. (%)
- Subjects experiencing at least one TEAE: Total [3]: 2 (33.3) No. (%)
- Subjects experiencing at least one TEAE: Upper abdominal pain [3]: 0 (0.0) No. (%)
- Subjects experiencing at least one TEAE: Vomiting [3]: 2 (33.3) No. (%)
- Subjects experiencing at least one TEAE: Abdominal pain [4]: 0 (0.0) No. (%)
- Subjects experiencing at least one TEAE: Arthralgia [4]: 0 (0.0) No. (%)
- Subjects experiencing at least one TEAE: Back pain [4]: 0 (0.0) No. (%)
- Subjects experiencing at least one TEAE: Diarrhea [4]: 0 (0.0) No. (%)
- Subjects experiencing at least one TEAE: Flank pain [4]: 0 (0.0) No. (%)
- Subjects experiencing at least one TEAE: Headache [4]: 0 (0.0) No. (%)
- Subjects experiencing at least one TEAE: Injury, poisoning, and procedural complications [4]: 0 (0.0) No. (%)
- Subjects experiencing at least one TEAE: Musculoskeletal and connective tissue disorders [4]: 0 (0.0) No. (%)
- Subjects experiencing at least one TEAE: Nausea [4]: 0 (0.0) No. (%)
- Subjects experiencing at least one TEAE: Neck pain [4]: 0 (0.0) No. (%)
- Subjects experiencing at least one TEAE: Nervous system disorders [4]: 0 (0.0) No. (%)
- Subjects experiencing at least one TEAE: Pain in extremity [4]: 0 (0.0) No. (%)
- Subjects experiencing at least one TEAE: Sciatica, back pain [4]: 0 (0.0) No. (%)
- Subjects experiencing at least one TEAE: Skin abrasion [4]: 0 (0.0) No. (%)

Reference: paper PMC5487684, “Safety, Pharmacokinetics, and Antiviral Activity of a Novel HIV Antiviral, ABX464, in Treatment-Naive HIV-Infected Subjects in a Phase 2 Randomized, Controlled Study” (Antimicrobial Agents and Chemotherapy, 2017)
